Data on 25 molecules can be found in ChEMBL document CHEMBL5244219, “Recent developments of quinolone-based derivatives and their activities against Escherichia coli” (Eur J Med Chem, 2018).

For data set [1], the system named is Escherichia coli. Nature of the data set: Antibacterial activity against Escherichia coli ATCC 700603 assessed as bacterial growth inhibition by agar dilution method. The class given is functional.
The test system of data set [2] is Escherichia coli. Nature of the data set: Antibacterial activity against Escherichia coli assessed as bacterial growth inhibition by microdilution method. Format: functional.
Data set [3] deals with Escherichia coli. Briefly: Antibacterial activity against Escherichia coli assessed as bacterial growth inhibition incubated for 18 to 20 hrs by agar dilution method. The class given is functional. The settings on record: time 18-20 hrs.
The subject of data set [4] is Escherichia coli. Nature of the data set: Antibacterial activity against Escherichia coli NCTC 10418 assessed as bacterial growth inhibition incubated for 18 to 20 hrs by agar dilution method. Format: functional. The settings on record: time 18-20 hrs.
Data set [5] relates to Escherichia coli. Briefly: Antibacterial activity against Escherichia coli DC2 assessed as bacterial growth inhibition by agar dilution method. Format: functional.
For data set [6], the system named is Escherichia coli. Nature of the data set: Potency index, ratio of ceftazidime MIC to compound IC50 for antibacterial activity against Escherichia coli DC2. Format: functional.
Data set [7] has as its system Escherichia coli. Nature of the data set: Potency index, ratio of ceftazidime MIC to compound IC50 for antibacterial activity against Escherichia coli DC0. The class given is functional.
Data set [8] has as its system Escherichia coli. Nature of the data set: Antibacterial activity against Escherichia coli DC0 assessed as bacterial growth inhibition by agar dilution method. Format: functional.
Data set [9] deals with Escherichia coli. Nature of the data set: Antibacterial activity against Escherichia coli ATCC 35218 assessed as bacterial growth inhibition incubated for 18 hrs by agar dilution method. Format: functional.
For data set [10], the system named is Escherichia coli. Nature of the data set: Antibacterial activity against Escherichia coli assessed as bacterial growth inhibition incubated for 16 to 24 hrs by absorbance analysis. Format: functional. To be noted: time 16-24 hrs.
The test system of data set [11] is Escherichia coli. Briefly: Antibacterial activity against Escherichia coli KC-14 assessed as bacterial growth inhibition. The class given is functional.
Data set [12] deals with Escherichia coli. Nature of the data set: Antibacterial activity against Escherichia coli K-12 C600 assessed as bacterial growth inhibition. The class given is functional.
The subject of data set [13] is Escherichia coli. Nature of the data set: Antibacterial activity against Escherichia coli TolC assessed as bacterial growth inhibition. The class given is functional.
The subject of data set [14] is Escherichia coli. Nature of the data set: Antibacterial activity against Escherichia coli DH5alpha assessed as bacterial growth inhibition. The class given is functional.
Data set [15] relates to Escherichia coli. Briefly: Antibacterial activity against Escherichia coli assessed as bacterial growth inhibition incubated for 18 hrs by agar dilution method. The class given is functional.
The test system of data set [16] is Escherichia coli. Nature of the data set: Antibacterial activity against Escherichia coli assessed as bacterial growth inhibition by broth microdilution method. The class given is functional.
The subject of data set [17] is Escherichia coli. Nature of the data set: Antibacterial activity against Escherichia coli assessed as bacterial growth inhibition incubated for 24 hrs by agar streak dilution method. The class given is functional.
In data set [18] the test system is Escherichia coli. Nature of the data set: Antibacterial activity against Escherichia coli NCDC 134 assessed as bacterial growth inhibition. Format: functional.
The subject of data set [19] is Escherichia coli. Briefly: Antibacterial activity against Escherichia coli assessed as bacterial growth inhibition. The class given is functional.
Data set [20] has as its system Escherichia coli. Briefly: Antibacterial activity against Escherichia coli JM109 assessed as bacterial growth inhibition. Format: functional.
Data set [21] deals with Escherichia coli. Nature of the data set: Antibacterial activity against Escherichia coli assessed as bacterial growth inhibition incubated for 18 hrs by twofold serial dilution assay. Format: functional.
Data set [22] in a line: Half life in mouse at 20 mg/kg, po. Format: ADME, organism-based. The settings on record: in vivo.
Data set [23] concerns Escherichia coli. Briefly: Antibacterial activity against Escherichia coli KC-14 infected in po dosed mouse assessed as bacterial growth inhibition. The class given is functional. The settings on record: Escherichia coli, KC-14, po, read-out: ED50.
The nature of data set [24]: AUC(0 to infinity) in mouse at 20 mg/kg, po. The class given is ADME, organism-based. The arrangement: dose 20 mg/kg, route po. To be noted: in vivo.
Data set [25] can be described thus: Cmax in mouse at 20 mg/kg, po. The class given is ADME, organism-based. Set-up: dose 20 mg/kg, route po. The settings on record: in vivo.

Values after ≈ are worked out from the molar mass of the structure shown.

With `NC1CCN(c2c(F)cc3c(=O)c(C(=O)O)cn(C4CC4)c3c2Cl)C1` (stereo not given) [CLINAFLOXACIN], the MIC in [1] was found to be 1 µg/mL (≈ 2.73 µM).
Turning to `CC(=O)NC[C@H]1CN(c2ccc(N3CCN(c4nc5c(cc4F)c(=O)c(C(=O)O)cn5C4CC4)CC3)c(F)c2)C(=O)O1`, in [2], the MIC was at least 0.5 µg/mL.
Take `CCn1cc(C(=O)O)c(=O)c2cc(F)c(N3CCN(CN4C(=O)/C(=N\c5ncc(Cc6cc(OC)c(OC)c(OC)c6)c(N)n5)c5ccccc54)C(C)C3)c(F)c21` (stereo not given): in data set [3], the MIC worked out at 0.305 µg/mL (≈ 0.39 µM).
As to `CC(=O)NC[C@H]1CN(c2ccc(N[C@@H]3CCN(c4cc5c(cc4F)c(=O)c(C(=O)O)cn5C4CC4)C3)c(F)c2)C(=O)O1`, the MIC in data set [2] was at least 0.5 µg/mL.
In the case of `CCn1cc(C(=O)O)c(=O)c2cc(F)c(N3CCN(CN4C(=O)C(=O)c5cc(Cl)ccc54)CC3)cc21`, the MIC in data set [4] is at most 0.018 µg/mL.
With `CC(=O)NC[C@H]1CN(c2ccc(N[C@@H]3CCN(c4nc5c(cc4F)c(=O)c(C(=O)O)cn5C4CC4)C3)c(F)c2)C(=O)O1`, in data set [2], the MIC is at least 0.5 µg/mL.
For `CCO/N=C(\C(=O)N[C@@H]1C(=O)N2C(C(=O)O)=C(CNC(=O)c3cn(CC)c4cc(O)c(O)cc4c3=O)CSC12)c1csc(N)n1` (stereo in doubt), the MIC in data set [5] and in [8] was 0.008 µg/mL (≈ 0.0122 µM) throughout. Besides, the Ratio in data set [6] and in data set [7] was 8 each time.
Regarding `CCn1cc(C(=O)O)c(=O)c2cc(F)c(N3CCN(CN4C(=O)/C(=N/NC(N)=S)c5ccccc54)CC3)cc21`, the MIC in [4] was at most 0.018 µg/mL.
In the case of `COc1ccccc1CO/N=C1\CCN(c2c(F)cc3c(=O)c(C(=O)O)cn(C4CC4)c3c2OC)CC1N` (stereo not given), the MIC in data set [9] is under 0.008 µg/mL.
Consider `CCn1cc(C(=O)O)c(=O)c2cc(F)c(N3CCN(CN4C(=O)C(=O)c5ccccc54)CC3)cc21`, for which, in data set [4], the MIC was at most 0.018 µg/mL.
As to `Cc1[nH]c2ccc([N+](=O)[O-])cc2c(=O)c1CC(=O)O`, the MIC in data set [10] was 8.97 µg/mL (≈ 34.2 µM).
For `CCn1cc(C(=O)O)c(=O)c2cc(F)c(N3CCN(CN4C(=O)/C(=N\c5ncc(Cc6cc(OC)c(OC)c(OC)c6)c(N)n5)c5ccccc54)CC3)cc21`, in data set [3], the minimal inhibitory concentration (MIC) came out at 0.0763 µg/mL (≈ 0.102 µM).
On to `CN1CCN(c2cc3c(cc2F)c(=O)c(C(=O)O)c2n3CCS2)CC1`, for which the MIC in data set [11] and in data set [12] was 0.2 µg/mL (≈ 0.55 µM) in each case.
`COc1cc(Cc2cnc(/N=C3\C(=O)N(CN4CCN(c5cc6c(cc5F)c(=O)c(C(=O)O)cn6C5CC5)CC4)c4ccccc43)nc2N)cc(OC)c1OC`: the MIC in [3] stood at 0.0095 µg/mL (≈ 0.0125 µM).
In the case of `Cc1[nH]c2ccccc2c(=O)c1C`, the MIC50 in data set [13] was over 1.41 µg/mL; in data set [14], over 64 µg/mL.
Take `Cc1[nH]c2c(C)cc([N+](=O)[O-])cc2c(=O)c1CC(=O)O`: in data set [10], the MIC was 8.97 µg/mL (≈ 32.5 µM).
For `CC(C)=CCC/C(C)=C/Cc1c(C)[nH]c2ccccc2c1=O`, the MIC50 is over 1.41 µg/mL in data set [13] and over 64 µg/mL in data set [14].
As to `COc1c(N2C[C@@H](N)C3(CC3)C2)c(F)cc2c(=O)c(C(=O)O)cn([C@@H]3C[C@@H]3F)c12`, in data set [15], the MIC is at most 0.006 µg/mL.
On to `CCn1cc(C(=O)NN)c(=O)c2cc(F)ccc21`, for which the minimum inhibitory concentration (MIC) in [16] came out at 0.0625 µg/mL (≈ 0.251 µM).
With `CCn1cc(C(=O)O)c(=O)c2cc(F)c(N3CCNCC3)cc21` [NORFLOXACIN], the MIC in data set [17] was 6.25 µg/mL (≈ 19.6 µM); in data set [1], 4 µg/mL (≈ 12.5 µM); in data set [18], 25 µg/mL (≈ 78.3 µM); in data set [19], 0.1 µg/mL (≈ 0.313 µM); in data set [3] it was 0.31 µg/mL (≈ 0.971 µM); in data set [20], 1 µg/mL (≈ 3.13 µM). The MIC in data set [21] was 0.25 µg/mL (≈ 0.783 µM).
For `Cc1[nH]c2ccccc2c(=O)c1CC(=O)O`, the MIC in [10] amounted to 8.97 µg/mL (≈ 41.3 µM).
In data set [22], `CN1CCN(c2cc3c(cc2F)c(=O)c(C(=O)O)c2n3C(CF)S2)CC1` (stereo not given) gave a half-life of 1.5 h. Also, the MIC in [11] is 0.05 µg/mL (≈ 0.131 µM). Besides, in data set [23], the ED50 is 0.85 mg/kg. The molecule also registered an AUC(0-inf) in [24] of 6900 ng·h/mL. The Cmax in [25] stood at 4400 ng/mL.
In turn, `CC1Sc2c(C(=O)O)c(=O)c3cc(F)c(N4CCN(C)CC4)cc3n21` (stereo not given) showed a half-life in data set [22] of 2.8 h. In data set [11], the MIC came out at 0.025 µg/mL (≈ 0.0688 µM). For the same molecule, the ED50 in data set [23] is 0.97 mg/kg. Also, the AUC(0-inf) in data set [24] came out at 2600 ng·h/mL. This molecule also returned a Cmax in data set [25] of 940 ng/mL.
Turning to `COc1cccc(CO/N=C2\CCN(c3c(F)cc4c(=O)c(C(=O)O)cn(C5CC5)c4c3OC)CC2N)c1` (stereo not given), in [9], the MIC is under 0.008 µg/mL.
For `Cc1[nH]c2cc3ccccc3cc2c(=O)c1CC(=O)O`, in [10], the minimal inhibitory concentration (MIC) is 8.97 µg/mL (≈ 33.6 µM).
